Measurements from patent US20220241203A1, “METHOD FOR PRODUCTION OF LIPOSOMES” (UNIVERSIDADE DO MINHO, priority 2019, published 2022).

Experiment: Encapsulation efficiency of the agent in liposomes (free agent removed by gel filtration)
Format: physicochemical
Procedure: In an embodiment, liposomes composed of DOPE/Cholesterol/DSPE-MPEG (54:36:10, molar ratio) were prepared using the ethanolic injection method. Briefly, lipids (DOPE, cholesterol and DSPE-MPEG) were dissolved in ethanol (5% in the classic ethanol injection method; 50% in the new proposed pre-concentration method, relative to the initial 20% aqueous phase) at 60° C.
The solution was injected under stirring to an aqueous solution (phosphate buffered saline, PBS). This process is done at 70° C., remaining during the necessary time to evaporate all the ethanol volume.
In the classic ethanolic injection method liposomes are extruded to reduce their size. In the pre-concentration method, after ethanol evaporation or tangential flow filtration, liposomal dispersion is diluted five times in PBS (remaining 80% of volume is added). The free therapeutic or imaging agent that was not incorporated into liposomes was removed from the samples after passage through a gel filtration chromatography column (GE Healthcare) with 5 kDa cut-off (PD-10 Desalting Columns containing 8.3 mL of Sephadex G-25 Medium). Hydrophilic therapeutic or imaging agents (e.g. methotrexate and doxorubicin) are present in this aqueous phase in the classic ethanol injection method and in the new proposed pre-concentration method. […]

For CN(Cc1cnc2nc(N)nc(N)c2n1)c1ccc(C(=O)N[C@@H](CCC(=O)O)C(=O)O)cc1 [methotrexate], the “amount of the agent used that was encapsulated” value (before optimization of the production method) was 3-5% and the encapsulation efficiencies (pre-concentration method, 1:1 ethanol:aqueous phase, 2 steps) was roughly 40%.
